Source: the supplement of paper PMC10307832

Assays:
Assay in all cases: relative viability (nuclei count vs DMSO), 5 days (fraction); higher = more cells survive
[1] = compound: CC(C)C[C@@H](C(=O)N[C@H](C(=O)OC1CCCC1)c1ccccc1)[C@H](O)C(=O)NO [Tosedostat] + O=C(c1cc(Cc2n[nH]c(=O)c3ccccc23)ccc1F)N1CCN(C(=O)C2CC2)CC1 [Olaparib] (partner 8 µM)
Outline: (§1)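 Relative viability equals treated-well nuclei counts divided by vehicle-well nuclei counts. Counts came from 4× images of lung cancer cell lines grown in 1536-well plates for 5 days after pin-tool dosing on the day after seeding. Dosing used one drug alone or a fixed anchor-drug dose plus five library-drug doses (not always all listed) in √10 steps, and values are medians of duplicate plates.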

[2] = compound: CC(C)C[C@@H](C(=O)N[C@H](C(=O)OC1CCCC1)c1ccccc1)[C@H](O)C(=O)NO [Tosedostat] + CS(=O)(=O)CCNCc1ccc(-c2ccc3ncnc(Nc4ccc(OCc5cccc(F)c5)c(Cl)c4)c3c2)o1 [Lapatinib] (partner 2 µM)
Outline: as §1

[3] = compound: CC(C)C[C@@H](C(=O)N[C@H](C(=O)OC1CCCC1)c1ccccc1)[C@H](O)C(=O)NO [Tosedostat] + Cc1cc(Nc2cc(N3CCN(C)CC3)nc(Sc3ccc(NC(=O)C4CC4)cc3)n2)n[nH]1 [Tozasertib] (partner 0.1 µM)
Outline: as §1

[4] = compound: CC(C)C[C@@H](C(=O)N[C@H](C(=O)OC1CCCC1)c1ccccc1)[C@H](O)C(=O)NO [Tosedostat] + CC(C)C[C@H](NC(=O)[C@H](Cc1ccccc1)NC(=O)c1cnccn1)B(O)O [Bortezomib] (partner 0.002 µM)
Outline: as §1

Cell Line	relative viability ([1]; first compound 0.02 µM)	relative viability ([1]; first compound 0.06325 µM)	relative viability ([1]; first compound 0.2 µM)	relative viability ([1]; first compound 0.6325 µM)	relative viability ([1]; first compound 2 µM)	relative viability ([2]; first compound 0.02 µM)	relative viability ([2]; first compound 0.06325 µM)	relative viability ([2]; first compound 0.2 µM)	relative viability ([2]; first compound 0.6325 µM)	relative viability ([2]; first compound 2 µM)	relative viability ([3]; first compound 0.02 µM)	relative viability ([3]; first compound 0.06325 µM)	relative viability ([3]; first compound 0.2 µM)	relative viability ([3]; first compound 0.6325 µM)	relative viability ([3]; first compound 2 µM)	relative viability ([4]; first compound 0.02 µM)	relative viability ([4]; first compound 0.06325 µM)	relative viability ([4]; first compound 0.2 µM)	relative viability ([4]; first compound 0.6325 µM)	relative viability ([4]; first compound 2 µM)
HCC-827	0.543	0.526	0.602	0.317	0.506	0.185	0.196	0.203	0.189	0.159	0.416	0.412	0.445	0.357	0.426	1.1	1.04	1.07	1	1.01
NCI-H1975	0.909	0.8	0.824	0.63	0.659	0.835	0.966	0.86	0.703	0.751	0.955	0.749	0.916	0.575	0.471	0.427	0.454	0.36	0.347	0.304
NCI-H2085		0.86	0.784	0.784	0.782	0.568	0.825	0.827	0.743	0.836	0.695	0.695	0.784	0.909	0.838	1.22	1.14	1.07	1.03	0.977
NCI-H1734	0.651	0.505	0.577	0.431	0.536	1.23	1.11	0.997	1.01	0.763	0.24	0.242	0.278	0.229	0.208	1.07	0.942	0.907	0.89	0.786
NCI-H650	0.368	0.362	0.381	0.271	0.219	1.19	0.996	0.608	0.775	0.489	0.839	0.78	0.684	0.602	0.471	0.958	0.894	0.562	0.685	0.504
LCLC-97TM1	0.335	0.436	0.309	0.236	0.251	0.951			0.641	0.766	0.216	0.203	0.184	0.165	0.172	0.529	0.696	0.537	0.336	0.193
SK-LU-1	0.467	0.45	0.335	0.391	0.367	0.915	0.774	0.7	0.709	0.739	0.356	0.282	0.275	0.285	0.225	1.33	1.14	1.15	0.921	0.718
HOP-62	0.638	0.346	0.321	0.245	0.363	1.08	0.935	1.08	0.891	0.983	0.393	0.31	0.329	0.323	0.152	0.719	0.931	0.805	0.526	0.498
NCI-H23	0.323	0.238	0.294	0.252	0.191	1.23	1.06	0.958	1	0.628	0.491	0.347	0.41	0.26	0.294	1.11	0.959	0.846	0.687	0.463
